Experimental data reported in patent publication US11414385B2, “Compounds and methods for treating, detecting, and identifying compounds to treat apicomplexan parasitic diseases” (The University of Chicago, priority 2015, dated 2022).
Where two headings read alike, the source gives them in different places.

Test system: P. falciparum strains D6, TM91-C235, W2, C2B
Assay: Malaria SYBR Green I-Based Fluorescence (MSF) Assay
Format: cell-based, Plasmodium falciparum
Method: Testing of P. falciparum: D6 is a drug sensitive strain from Sierra Leone, C235 is a multi-drug resistant strain from Thailand, W2 is a chloroquine resistant strain from Thailand, and C2B has resistance to a variety of drugs including atovaquone.
D6 is a drug sensitive strain from Sierra Leone, C235 is a multi-drug resistant strain from Thailand, W2 is a chloroquine resistant strain from Thailand, and C2B has resistance to a variety of drugs including atovaquone. These assays were performed as described.
(§1) Compound activity against P. falciparum, a causative agent of malaria, was tested using the Malaria SYBR Green I—Based Fluorescence (MSF) Assay. This; microtiter plate drug sensitivity assay uses the presence of malarial DNA as a measure of parasitic proliferation in the presence of antimalarial drugs or experimental compounds based on modifications of previously described methods by Plouffe et al (20) and Johnson et al. As the intercalation of SYBR Green I dye and its resulting fluorescence is relative to parasite growth, a test compound that inhibits the growth of the parasite will result in a lower fluorescence.
Selected compounds were examined for activity against four strains of P. falciparum: D6 (CDC/Sierra Leone), a drug-sensitive strain readily killed by chloroquine, TM91-C235, a multi-drug resistant strain resistant to chloroquine, W2, a chloroquine resistant strain from Thailand, and C2B has resistance to a variety of drugs including atovaquone.
D6 is a drug sensitive strain from Sierra Leone, C235 is a multi-drug resistant strain from Thailand, W2 is a chloroquine resistant strain from Thailand, and C2B has resistance to a variety of drugs including atovaquone. These assays were performed using standard protocols.
as §1, with “known in the art.” for “by Plouffe et al (20) and Johnson et al.”, “fluorescence. Selected compounds were examined for activity against four strains of P. falciparum: D6 (CDC/Sierra Leone), a drugsensitive strain readily killed by chloroquine, TM91-C235, a multi-drug resistant strain resistant to chloroquine, W2, a chloroquine resistant strain from Thailand, and C2B has resistance to a variety of drugs including atovaquone.” for “fluorescence.”

[1] = Plasmodium falciparum, C2B strain, read-out: SYBR Green C2B IC50
[2] = Plasmodium falciparum, D6 strain, read-out: Pf D6 IC50
[3] = Plasmodium falciparum, D6 strain, read-out: SYBR Green D6 IC50
[4] = Plasmodium falciparum, TM91C235 strain, read-out: SYBR Green C235 IC50
[5] = Plasmodium falciparum, W2 strain, read-out: SYBR Green W2 IC50

Row | SMILES | IC50 [1] | IC50 [2] | IC50 [3] | IC50 [4] | IC50 [5] | IC50 (D6 strain, read-out: SYBR Green D6 IC50)
1 | Cc1[nH]c2c(c(=O)c1-c1ccc(Oc3ccc(C(=O)O)cc3)nc1)CCCC2 [JAG039, 4-((5-(2-methyl-4-oxo-1,4,5,6,7,8-hexahydroquinolin-3-yl)pyridin-2-yl)oxy)benzoic acid] | > 20 µM | 9.6 µM | 9.6 µM | > 20 µM | > 20 µM | –
2 | Cc1[nH]c2c(c(=O)c1-c1ccc(Oc3ccc(C(=O)O)cc3)cc1)CCCC2 [JAG046, 4-(4-(2-methyl-4-oxo-1,4,5,6,7,8-hexahydroquinolin-3-yl)phenoxy)benzoic acid] | – | 6.72 µM | – | – | – | –
3 | Cc1[nH]c2c(c(=O)c1-c1ccc(Oc3cccc(C(=O)O)c3)cc1)CCCC2 [JAG047, 3-(4-(2-methyl-4-oxo-1,4,5,6,7,8-hexahydroquinolin-3-yl)phenoxy)benzoic acid] | – | 3.75 µM | – | – | – | –
4 | CCn1c(C)c(-c2ccc(Oc3ccccc3)cc2)c(=O)c2ccccc21 [JM10, 1-ethyl-2-methyl-3-(4-phenoxyphenyl)quinolin-4(1H)-one] | 6.75 µM | – | 0.88 µM | 4.48 µM | 5.36 µM | –
5 | Cc1[nH]c2ccccc2c(=O)c1-c1ccc(Oc2ccccc2)cc1 [MJM129, 2-methyl-3-(4-phenoxyphenyl)quinolin-4(1H)-one] | 0.01 µM | – | 0.03 µM | 0.07 µM | 0.08 µM | –
6 | Cc1[nH]c2ccccc2c(=O)c1-c1ccc(Oc2ccc(Cl)cc2)c(O)c1 [RG38, 3-(4-(4-chlorophenoxy)-3-hydroxyphenyl)-2-methylquinolin-4(1H)-one] | > 20 µM | – | 2.84 µM | 13.7 µM | 9.25 µM | 2.88 µM
